Where two headings read alike, the source gives them in different places.
Biological target: T1, F508del (Homo sapiens, UniProt P13569, DEL508-508)
T1 construct: expressed in transfected cells
Assay: Protocol 2: FRET membrane potential optical assay (VIPR), identification of correction compounds
Type: cell-based
How it was run: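 NIH3T3 mouse fibroblasts stably expressing F508del were treated with test compound for 16 hrs at 37° C. in serum-free medium; 27° C. incubation served as positive control. F508del was activated with 10 μM forskolin plus 20 μM genistein in Cl^−-free medium, and Cl^− efflux-driven depolarization was read by DiSBAC2(3)/CC2-DMPE FRET.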

[1] = Table 3, compounds of Table 1 as modulators of CFTR activity, protocol not stated
[2] = F508del CFTR modulator activity, compounds of Table 1, read-out: EC30

T1 sequence (P13569 with tags, fused parts or gaps DEL508-508): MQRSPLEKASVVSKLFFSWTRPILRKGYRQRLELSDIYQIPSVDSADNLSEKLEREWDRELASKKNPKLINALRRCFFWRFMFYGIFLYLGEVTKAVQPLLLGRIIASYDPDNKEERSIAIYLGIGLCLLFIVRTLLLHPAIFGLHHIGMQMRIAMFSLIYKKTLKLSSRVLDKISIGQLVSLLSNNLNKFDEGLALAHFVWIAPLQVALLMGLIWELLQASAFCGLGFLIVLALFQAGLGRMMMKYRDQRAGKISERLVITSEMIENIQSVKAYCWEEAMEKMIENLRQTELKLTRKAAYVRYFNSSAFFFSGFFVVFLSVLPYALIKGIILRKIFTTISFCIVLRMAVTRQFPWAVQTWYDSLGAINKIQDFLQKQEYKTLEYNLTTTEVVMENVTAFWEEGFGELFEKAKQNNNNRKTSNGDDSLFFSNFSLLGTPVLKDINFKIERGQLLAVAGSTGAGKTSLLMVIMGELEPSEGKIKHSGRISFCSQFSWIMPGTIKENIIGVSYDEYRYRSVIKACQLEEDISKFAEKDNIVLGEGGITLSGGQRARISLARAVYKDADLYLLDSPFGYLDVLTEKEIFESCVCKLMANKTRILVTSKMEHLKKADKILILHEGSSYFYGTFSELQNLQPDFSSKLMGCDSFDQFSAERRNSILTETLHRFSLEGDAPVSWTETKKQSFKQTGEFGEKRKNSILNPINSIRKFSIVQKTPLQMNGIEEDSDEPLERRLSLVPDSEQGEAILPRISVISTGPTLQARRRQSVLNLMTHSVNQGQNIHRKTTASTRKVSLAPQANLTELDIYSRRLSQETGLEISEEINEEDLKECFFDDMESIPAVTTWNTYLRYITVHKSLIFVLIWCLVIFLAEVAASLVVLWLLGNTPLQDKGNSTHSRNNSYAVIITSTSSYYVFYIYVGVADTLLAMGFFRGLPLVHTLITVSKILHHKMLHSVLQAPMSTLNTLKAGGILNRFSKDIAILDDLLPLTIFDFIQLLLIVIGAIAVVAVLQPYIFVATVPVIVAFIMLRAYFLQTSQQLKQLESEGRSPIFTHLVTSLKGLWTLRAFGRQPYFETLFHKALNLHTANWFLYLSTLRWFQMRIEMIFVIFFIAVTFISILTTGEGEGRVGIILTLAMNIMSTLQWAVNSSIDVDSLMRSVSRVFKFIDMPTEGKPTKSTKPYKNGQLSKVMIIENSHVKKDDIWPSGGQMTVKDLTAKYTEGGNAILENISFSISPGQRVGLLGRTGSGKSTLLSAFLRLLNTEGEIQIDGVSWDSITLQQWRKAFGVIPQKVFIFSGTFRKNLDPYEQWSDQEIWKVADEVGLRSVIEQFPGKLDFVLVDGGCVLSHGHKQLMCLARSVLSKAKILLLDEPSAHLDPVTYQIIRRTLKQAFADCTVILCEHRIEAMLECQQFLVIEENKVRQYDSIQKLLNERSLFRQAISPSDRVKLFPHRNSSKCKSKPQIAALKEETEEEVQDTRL

Structure (SMILES)	EC30 [1]	EC30 [2]
Cc1cc(C)c(Oc2nc(-c3cccc(CO)c3)ccc2C(=O)NS(=O)(=O)c2cccc(N)n2)c(C)c1 [Compound 786, N-[(6-amino-2-pyridyl)sulfonyl]-6-[3-(hydroxymethyl)phenyl]-2-(2,4,6-trimethylphenoxy)pyridine-3-carboxamide]	+ (“+” means greater than 10 uM)	
Cc1cc(C)c(Oc2nc(-c3ccc(N(C)C)nc3)ccc2C(=O)NS(=O)(=O)c2cccc(N)n2)c(C)c1 [Compound 787, N-[(6-amino-2-pyridyl)sulfonyl]-6-[6-(dimethylamino)-3-pyridyl]-2-(2,4,6-trimethylphenoxy)pyridine-3-carboxamide]	+++ (“+++” means <3 uM)	
CC(C)Oc1cc(-c2ccc(C(=O)NS(=O)(=O)c3cccc(N)n3)c(N3[C@H](C)CC[C@@H]3C)n2)ccc1Cl [Compound 788, N-[(6-amino-2-pyridyl)sulfonyl]-6-(4-chloro-3-isopropoxy-phenyl)-2-[(2S,5R)-2,5-dimethylpyrrolidin-1-yl]pyridine-3-carboxamide]	+++ (“+++” means <3 uM)	
C[C@@H]1CC[C@H](C)N1c1nc(-c2ccc(OCC3CC3)nc2)ccc1C(=O)NS(=O)(=O)c1cccc(N)n1 [Compound 789, N-[(6-amino-2-pyridyl)sulfonyl]-6-[6-(cyclopropylmethoxy)-3-pyridyl]-2-[(2S,5R)-2,5-dimethylpyrrolidin-1-yl]pyridine-3-carboxamide]	+++ (“+++” means <3 uM)	
Cc1cccc(C)c1CN1Cc2ccccc2C1(C)C(=O)NS(=O)(=O)c1cccc(N)n1 (stereo not drawn) [Compound 790, N-[(6-amino-2-pyridyl)sulfonyl]-2-[(2,6-dimethylphenyl)methyl]-1-methyl-isoindoline-1-carboxamide]	+++ (“+++” means <3 uM)	
COCCCc1ccc(C(=O)NS(=O)(=O)c2cccc(N)n2)c(Oc2c(C)cc(C)cc2C)n1 [Compound 791, N-[(6-amino-2-pyridyl)sulfonyl]-6-(3-methoxypropyl)-2-(2,4,6-trimethylphenoxy)pyridine-3-carboxamide]	++ (“++” means between 3 uM and 10 uM)	
Cc1cc(C)c(Oc2nc(C)ccc2C(=O)NS(=O)(=O)c2cccc(NCCN)n2)c(C)c1 [Compound 792, N-[[6-(2-aminoethylamino)-2-pyridyl]sulfonyl]-6-methyl-2-(2,4,6-trimethylphenoxy)pyridine-3-carboxamide]	++ (“++” means between 3 uM and 10 uM)	
Cc1cc(C)c(Oc2nc(-c3ccc(C)c(O)c3)ccc2C(=O)NS(=O)(=O)c2cccc(N)n2)c(C)c1 [Compound 793, N-[(6-amino-2-pyridyl)sulfonyl]-6-(3-hydroxy-4-methyl-phenyl)-2-(2,4,6-trimethylphenoxy)pyridine-3-carboxamide]	+++ (“+++” means <3 uM)	
CC1CCN(c2nc(C(C)(C)C)ccc2C(=O)NS(=O)(=O)c2cccc(N)n2)CC1 [Compound 794, N-[(6-amino-2-pyridyl)sulfonyl]-6-tert-butyl-2-(4-methyl-1-piperidyl)pyridine-3-carboxamide]	+++ (“+++” means <3 uM)	
COc1cccc(S(=O)(=O)NC(=O)c2ccc(-c3cc(F)cc(OCC(C)C)c3)nc2N2CC(C)CC2(C)C)n1 (stereo not drawn) [Compound 795]	+++ (“+++” means <3 uM)	
CC1CN(c2ncccc2C(=O)NS(=O)(=O)c2cccc(N[C@H](C)C3CCCCC3)n2)C(C)(C)C1 (stereo partly drawn) [Compound 1996, N—[[6-[[(1R)-1-cyclohexylethyl]amino]-2-pyridyl]sulfonyl]-2-(2,2,4-trimethylpyrrolidin-1-yl)pyridine-3-carboxamide]		< 3 µM
C[C@@H]1CN(c2nc(-c3cccc(CO)c3)ccc2C(=O)NS(=O)(=O)c2ccc[nH]c2=O)C(C)(C)C1 [Compound 1997, 6-[3-(hydroxymethyl)phenyl]-N-[(2-oxo-1H-pyridin-3-yl)sulfonyl]-2-[(4S)-2,2,4-trimethylpyrrolidin-1-yl]pyridine-3-carboxamide]		3 to 10 µM
COc1cc(-c2ccc(C(=O)NS(=O)(=O)c3cccnc3N)c(N3C[C@@H](C)CC3(C)C)n2)cc(F)c1F [Compound 1998, N-[(2-amino-3-pyridyl)sulfonyl]-6-(3,4-difluoro-5-methoxy-phenyl)-2-[(4S)-2,2,4-trimethylpyrrolidin-1-yl]pyridine-3-carboxamide]		< 3 µM
Cc1cc(O)ccc1-c1ccc(C(=O)NS(=O)(=O)c2cccnc2N)c(N2C[C@@H](C)CC2(C)C)n1 [Compound 1999, N-[(2-amino-3-pyridyl)sulfonyl]-6-(4-hydroxy-2-methyl-phenyl)-2-[(4S)-2,2,4-trimethylpyrrolidin-1-yl]pyridine-3-carboxamide]		3 to 10 µM
Cc1ccc(-c2ccc(C(=O)NS(=O)(=O)c3ccc[nH]c3=O)c(N3C[C@@H](C)CC3(C)C)n2)c(F)c1 [Compound 2000, 6-(2-fluoro-4-methyl-phenyl)-N-[(2-oxo-1H-pyridin-3-yl)sulfonyl]-2-[(4S)-2,2,4-trimethylpyrrolidin-1-yl]pyridine-3-carboxamide]		< 3 µM
CC1CN(c2ncccc2C(=O)NS(=O)(=O)c2cccc(OCC3CC=CCC3C)n2)C(C)(C)C1 (stereo not drawn) [Compound 2001, N—[[6-[(6-methylcyclohex-3-en-1-yl)methoxy]-2-pyridyl]sulfonyl]-2-(2,2,4-trimethylpyrrolidin-1-yl)pyridine-3-carboxamide]		< 3 µM
CCN(CC)c1cc(C)cc(-c2ccc(C(=O)NS(=O)(=O)c3cccc(N)n3)c(N3C[C@@H](C)CC3(C)C)n2)n1 [Compound 2002, N-[(6-amino-2-pyridyl)sulfonyl]-6-[6-(diethylamino)-4-methyl-2-pyridyl]-2-[(4S)-2,2,4-trimethylpyrrolidin-1-yl]pyridine-3-carboxamide]		< 3 µM
CC1CN(c2ncccc2C(=O)NS(=O)(=O)c2cccc(Oc3ccc4[nH]ccc4c3)n2)C(C)(C)C1 (stereo not drawn) [Compound 2003, N—[[6-(1H-indol-5-yloxy)-2-pyridyl]sulfonyl]-2-(2,2,4-trimethylpyrrolidin-1-yl)pyridine-3-carboxamide]		< 3 µM
CC1CN(c2ncccc2C(=O)NS(=O)(=O)c2cccc(NCc3cccs3)n2)C(C)(C)C1 (stereo not drawn) [Compound 2004, N—[[6-(2-thienylmethylamino)-2-pyridyl]sulfonyl]-2-(2,2,4-trimethylpyrrolidin-1-yl)pyridine-3-carboxamide]		< 3 µM
CC1CN(c2ncccc2C(=O)NS(=O)(=O)c2cccc(N(C)CCc3cccnc3)n2)C(C)(C)C1 (stereo not drawn) [Compound 2005, N—[[6-[methyl-[2-(3-pyridyl)ethyl]amino]-2-pyridyl]sulfonyl]-2-(2,2,4-trimethylpyrrolidin-1-yl)pyridine-3-carboxamide]		3 to 10 µM
COc1c(F)cc(F)cc1-c1ccc(C(=O)NS(=O)(=O)c2cccnc2N)c(N2C[C@@H](C)CC2(C)C)n1 [Compound 2006, N-[(2-amino-3-pyridyl)sulfonyl]-6-(3,5-difluoro-2-methoxy-phenyl)-2-[(4S)-2,2,4-trimethylpyrrolidin-1-yl]pyridine-3-carboxamide]		< 3 µM
C[C@@H]1CN(c2nc(-c3cccc4ccccc34)ccc2C(=O)NS(=O)(=O)c2ccc[nH]c2=O)C(C)(C)C1 [Compound 2007, 6-(1-naphthyl)-N-[(2-oxo-1H-pyridin-3-yl)sulfonyl]-2-[(4S)-2,2,4-trimethylpyrrolidin-1-yl]pyridine-3-carboxamide]		< 3 µM
COc1ncc(-c2ccc(C(=O)NS(=O)(=O)c3cccnc3N)c(N3C[C@@H](C)CC3(C)C)n2)c(OC)n1 [Compound 2008, N-[(2-amino-3-pyridyl)sulfonyl]-6-(2,4-dimethoxypyrimidin-5-yl)-2-[(4S)-2,2,4-trimethylpyrrolidin-1-yl]pyridine-3-carboxamide]		3 to 10 µM
CC(C)COc1cc(F)cc(-c2nc(N3C[C@@H](C)CC3(C)C)c(C(=O)NS(=O)(=O)c3cccc(N)n3)cc2I)c1 [Compound 2009, N-[(6-amino-2-pyridyl)sulfonyl]-6-(3-fluoro-5-isobutoxy-phenyl)-5-iodo-2-[(4S)-2,2,4-trimethylpyrrolidin-1-yl]pyridine-3-carboxamide]		< 3 µM
Cc1cc(-c2ccc(C(=O)NS(=O)(=O)c3cccc(N)n3)c(N3C[C@@H](C)CC3(C)C)n2)cc(OCC(C)C)n1 [Compound 2010, N-[(6-amino-2-pyridyl)sulfonyl]-6-(2-isobutoxy-6-methyl-4-pyridyl)-2-[(4S)-2,2,4-trimethylpyrrolidin-1-yl]pyridine-3-carboxamide]		< 3 µM
CC1CN(c2ncccc2C(=O)NS(=O)(=O)c2cccc(N3CCC4CCCCC4C3)n2)C(C)(C)C1 (stereo not drawn) [Compound 2011, N—[[6-(3,4,4a,5,6,7,8,8a-octahydro-1H-isoquinolin-2-yl)-2-pyridyl]sulfonyl]-2-(2,2,4-trimethylpyrrolidin-1-yl)pyridine-3-carboxamide]		< 3 µM
CC1CN(c2ncccc2C(=O)NS(=O)(=O)c2cccc(OCc3cccc(N(C)C)c3)n2)C(C)(C)C1 (stereo not drawn) [Compound 2012, N—[[6-[[3-(dimethylamino)phenyl]methoxy]-2-pyridyl]sulfonyl]-2-(2,2,4-trimethylpyrrolidin-1-yl)pyridine-3-carboxamide]		< 3 µM
CC1CN(c2ncccc2C(=O)NS(=O)(=O)c2cccc(Oc3ccc4c(c3)OCO4)n2)C(C)(C)C1 (stereo not drawn) [Compound 2013, N—[[6-(1,3-benzodioxol-5-yloxy)-2-pyridyl]sulfonyl]-2-(2,2,4-trimethylpyrrolidin-1-yl)pyridine-3-carboxamide]		< 3 µM
CC1CN(c2ncc(/C=C/c3ccc(C(F)(F)F)cc3)cc2C(=O)NS(=O)(=O)c2cccc(N)n2)C(C)(C)C1 (stereo not drawn) [Compound 2014, N-[(6-amino-2-pyridyl)sulfonyl]-5-[(E)-2-[4-(trifluoromethyl)phenyl]vinyl]-2-(2,2,4-trimethylpyrrolidin-1-yl)pyridine-3-carboxamide]		< 3 µM
CC1CN(c2ncccc2C(=O)NS(=O)(=O)c2cccc(Oc3ccccc3F)n2)C(C)(C)C1 (stereo not drawn) [Compound 2015, N—[[6-(2-fluorophenoxy)-2-pyridyl]sulfonyl]-2-(2,2,4-trimethylpyrrolidin-1-yl)pyridine-3-carboxamide]		< 3 µM
